Results: patent US12532889B2, “Herbicidal compositions comprising glufosinate” (BASF SE, priority 2023, dated 2026)

Test system: DIGIN = TRCIN (Digitaria insularis)
Assay: Post-emergence application in field trials (Example A)
Type: in vivo
Procedure: In the examples below, using the method of S. R. Colby (1967) “Calculating synergistic and antagonistic responses of herbicide combinations”, Weeds 15, p. 22ff., the value E, which is expected if the activity of the individual active compounds is only additive, was calculated:
[formula] • where • X=percent activity using active herbicide A at an application rate a; • Y=percent activity using active herbicide B (e.g. glufosinate) at an application rate b; • E=expected activity (in %) by A+B at application rates a+b.
If the value found experimentally is higher than the value E calculated according to Colby, a synergistic effect is present.
On field test sites, natural weed infestation or seeded weeds were treated post-emergence of the weeds.
In the field trials, the weeds were treated as indicated below.
In the following experiments, the herbicidal activity for the individual herbicidal compositions (solo and mixture applications) was assessed at the indicated days after treatment (DAT). The assessments for the damage on undesired weeds caused by the composition was carried out using a scale from 0 to 100%, compared to the untreated control plants. Here, 0 means no damage and 100 means complete destruction of the plants.
Post-emergence application of Herbicide A-1 (A-1) and glufosinate ammonium (B-2) in Field Trials:
Herbicide A-1 (50 g/l), glufosinate ammonium (200 g/l) and optional herbicide C were, together with addition of 0.5% v/v MSO (methylated seed oil) as adjuvant, formulated in water as distribution medium as indicated and sprayed with commercial flat fan nozzles.

[1] = Table 1.13, DIGIN height 20-30 cm, A-1 50, B-2 400 g ai/ha, 21 DAT, water 100 l/ha
[2] = Table 1.17, DIGIN height 20-30 cm, A-1 50, B-2 400 g ai/ha, 21 DAT, water 200 l/ha
[3] = Table 1.19, DIGIN height 20-30 cm, A-1 50, B-2 400 g ai/ha, 21 DAT, water 200 l/ha
[4] = Table 1.20, DIGIN height 60-80 cm, A-1 50, B-2 400 g ai/ha, 21 DAT, water 200 l/ha
[5] = Table 1.22, DIGIN in tillering stage, height 5-15 cm, A-1 50, B-2 400 g ai/ha, 21 DAT, water 200 l/ha
[6] = Table 1.22, DIGIN in tillering stage, height 5-15 cm, A-1 50, B-2 600 g ai/ha, 21 DAT, water 200 l/ha
[7] = Table 1.23, DIGIN growth stage 16-18, height 15-25 cm, A-1 50, B-2 400 g ai/ha, 21 DAT, water 200 l/ha
[8] = Table 1.23, DIGIN growth stage 16-18, height 15-25 cm, A-1 50, B-2 600 g ai/ha, 21 DAT, water 200 l/ha
[9] = Table 1.24, DIGIN growth stage 67, height 100 cm, A-1 50, B-2 400 g ai/ha, 21 DAT, water 200 l/ha
[10] = Table 1.24, DIGIN growth stage 67, height 100 cm, A-1 50, B-2 600 g ai/ha, 21 DAT, water 200 l/ha
[11] = Table 1.25, DIGIN in tillering stage, height 8-20 cm, A-1 50, B-2 400 g ai/ha, 21 DAT, water 200 l/ha
[12] = Table 1.25, DIGIN in tillering stage, height 8-20 cm, A-1 50, B-2 600 g ai/ha, 21 DAT, water 200 l/ha
[13] = Table 1.26, DIGIN in tillering stage, height 50-70 cm, A-1 50, B-2 400 g ai/ha, 21 DAT, water 200 l/ha
[14] = Table 1.26, DIGIN in tillering stage, height 50-70 cm, A-1 50, B-2 600 g ai/ha, 21 DAT, water 200 l/ha
[15] = Table 1.3, DIGIN height 60-80 cm, A-1 25, B-2 400 g ai/ha, 14 DAT, water 200 l/ha
[16] = Table 1.3, DIGIN height 60-80 cm, A-1 50, B-2 400 g ai/ha, 14 DAT, water 200 l/ha
[17] = Table 1.5, DIGIN growth stage 16-18, height 15-25 cm, A-1 50, B-2 400 g ai/ha, 14 DAT, water 200 l/ha
[18] = Table 1.5, DIGIN growth stage 16-18, height 15-25 cm, A-1 50, B-2 600 g ai/ha, 14 DAT, water 200 l/ha

Structure (SMILES)	% herbicidal activity [1]	% herbicidal activity [2]	% herbicidal activity [3]	% herbicidal activity [4]	% herbicidal activity [5]	% herbicidal activity [6]	% herbicidal activity [7]	% herbicidal activity [8]	% herbicidal activity [9]	% herbicidal activity [10]	% herbicidal activity [11]	% herbicidal activity [12]	% herbicidal activity [13]	% herbicidal activity [14]	% herbicidal activity [15]	% herbicidal activity [16]	% herbicidal activity [17]	% herbicidal activity [18]	% herbicidal activity (Table 1.7, DIGIN height 50-70 cm, tillering stage, A-1 solo 50 g ai/ha, 14 DAT, water volume 200 l/ha, 0.5% v/v MSO)	% herbicidal activity (Table 1.7, DIGIN height 50-70 cm, tillering stage, B-2 solo 600 g ai/ha, 14 DAT, water volume 200 l/ha, 0.5% v/v MSO)
CCOC(=O)COc1ccccc1Oc1nc(-n2c(=O)cc(C(F)(F)F)n(C)c2=O)c(F)cc1Cl [A-1, ethyl 2-[2-[[3-chloro-5-fluoro-6-[3-methyl-2,6-dioxo-4-(trifluoromethyl)pyrimidin-1-yl]-2-pyridyl]oxy]phenoxy]acetate]	30%	30%	30%	55%	57%	57%	57%	57%	7%	7%	53%	53%	55%	55%	37%	60%	62%	62%	42%	–
CP(=O)(O)CCC(N)C(=O)O (centres unmarked) [B-2, glufosinate-ammonium]	20%	30%	30%	57%	35%	70%	55%	65%	17%	37%	25%	43%	15%	15%	68%	68%	60%	70%	–	17%
